IC50 data for five compounds are collected here from ChEMBL document CHEMBL1130578, “Solid-phase synthesis of a N-carboxyalkyl tripeptide combinatorial library” (Bioorg Med Chem Lett, 1997).

The target of the assay is Stromelysin-1 (Homo sapiens, UniProt P08254). Kind of assay: Inhibition of matrix metalloprotease-3.
Sequence of Stromelysin-1 (P08254 whole entry): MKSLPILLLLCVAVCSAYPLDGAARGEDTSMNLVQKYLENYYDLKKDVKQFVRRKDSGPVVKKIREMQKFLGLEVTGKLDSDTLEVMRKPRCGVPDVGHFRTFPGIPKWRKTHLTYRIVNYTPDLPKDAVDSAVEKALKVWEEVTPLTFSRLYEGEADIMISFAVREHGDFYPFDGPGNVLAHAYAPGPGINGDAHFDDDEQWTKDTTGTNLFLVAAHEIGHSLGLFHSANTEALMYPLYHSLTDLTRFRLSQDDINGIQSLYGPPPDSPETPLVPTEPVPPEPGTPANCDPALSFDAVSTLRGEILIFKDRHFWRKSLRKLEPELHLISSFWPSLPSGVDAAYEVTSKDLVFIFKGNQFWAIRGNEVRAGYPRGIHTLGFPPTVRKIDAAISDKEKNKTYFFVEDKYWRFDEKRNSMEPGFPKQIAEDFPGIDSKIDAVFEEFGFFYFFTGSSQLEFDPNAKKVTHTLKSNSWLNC
In turn, `CCCCCCC(N[C@@H](CCc1ccccc1)C(=O)N[C@@H](CCCN=C(N)N)C(=O)N[C@@H](CC(C)C)C(=O)OC)C(=O)O` (stereo not given in full) displayed an IC50 of 400 nM. With `CCCCCCC(N[C@@H](CCc1ccccc1)C(=O)N[C@@H](CCCN=C(N)N)C(=O)N[C@@H](CCc1ccccc1)C(=O)OC)C(=O)O` (stereo not given in full) the figure was 800 nM; with `CCCCCCC(N[C@@H](CCc1ccccc1)C(=O)N[C@@H](CCCN=C(N)N)C(=O)N[C@@H](CCCC)C(=O)OC)C(=O)O` (stereo not given in full), 900 nM.

The compound `CCCCCCC(N[C@@H](CCc1ccccc1)C(=O)N[C@@H](CCCN=C(N)N)C(=O)N[C@@H](Cc1cc2ccccc2[nH]1)C(=O)OC)C(=O)O` (stereo not given in full) had a concentration for half-maximal inhibition (IC50) of 900 nM. Compound `CCCCCCC(N[C@@H](CCc1ccccc1)C(=O)N[C@@H](CCCN=C(N)N)C(=O)N[C@@H](CCC(N)=O)C(=O)OC)C(=O)O` (stereo not given in full) yielded an IC50 of 900 nM.
